Here are results for 16 molecules from patent US20050234026A1, “Method and agent for inducing apoptosis/cell death in leukemia cells” (priority 2003, published 2005).

Read-outs that look alike come from different tables or passages of the source.

In one data set the test system is CLL cells. As to the kind of experiment: Cytotoxicity of NOS inhibitors and NO quenchers/scavengers for freshly-isolated CLL cells in vitro. The data set is classed as cell-based, human. The conditions noted are these: for ED50 for CLL: Table 2, CLL cytotoxicity; for ED50 for CLL (mean ± SEM): CLL cytotoxicity, freshly-isolated patient cells in vitro; for EC50: read-out: EC50 (average concentration of compound that induced 50% CLL cell death), CLL cell death in vitro, ± SEM.

For a further data set, the target named is pure human enzyme NOS3 (Homo sapiens, UniProt P29474). The data set can be described thus: Kd for enzyme inhibition, pure human NOS3. The data set is classed as biochemical.
Data set [1] deals with freshly-isolated CLL cells. The data set can be described thus: Apoptosis and death of freshly-isolated CLL cells after exogenous NO donors and drugs. The data set is classed as cell-based, human. The conditions noted are these: for ID50, CLL cell apoptosis and death: acute addition. An excerpt:
We next wanted to examine CLL cells. These malignant cells differ in many ways from ANLL and normal hematopoietic. In addition to their different lineage, they are unique in that they have a very low growth […], exist primary in the G0 phase of the cell cycle, and have defective apoptosis. […] NO also synergized with the ara-guanosine prodrug 2-amino-9-[…]-D-6-methoxy araguanine (also called 506U78).

The next data set relates to HL-60 and U937 cells. As to the kind of experiment: Growth inhibition of acute nonlymphocytic leukemia cell lines by NO donors. It is filed as cell-based, human. The source says:
To more closely examine the mechanism of toxicity for myeloid leukemia cells, we did work to determine whether the rate of NO delivery affected its growth inhibition of acute nonlymphocytic leukemia cells. We also wanted to determine whether the NO inhibition of cell growth is associated induction of apoptosis. We treated HL-60 and U937 cells with three compounds that generate the same amount of NO but different rates. […] Furthermore, NO-induced growth inhibition was associated with apoptosis in a rate and concentration-dependent fashion (Reference 39).

The conditions of data set [2]: cited from earlier work.
The conditions of data set [3]: normals and trials for septic shock and migraine; cited from earlier work.
For data set [4], the system named is HL-60 myeloblastic leukemia cells. The data set can be described thus: Growth of HL-60 myeloblastic leukemia cells under NO-delivering drugs. The conditions noted are these: NO delivered from the drug. The data set is classed as cell-based, human. The source says:
While studying NO and macrophages progressed in the late 1980s, we hypothesized that NO produced in the BM would be a modulator of normal and leukemic hematopoiesis. […] The differentiated cells were vacuolated, and had increased expression of nonspecific esterase, CD11 b, and CD14.

For the next data set, the system named is normal human BM cells. The data set can be described thus: Colony formation of normal human bone marrow cells / CD34+ cells in methylcellulose. The data set is classed as cell-based. The settings on record: normal human BM cells in methylcellulose with erythropoietin and colony stimulating factors. On the procedure: The effects of NO on the growth and differentiation of normal human BM cells were analyzed (Reference 85). We felt that normal hematopoietic cells, like malignant hematopoietic cells, would be affected by NO. […] In retrospect, we think that the increase in CFU-GM by NO from SNP may be due to alterations in apoptosis secondary to changes in bcl-2 or caspases. None of the noted inhibitions were related to cGMP.

For data set [5], the target named is recombinant purified human NOS1 (Homo sapiens, UniProt P29475). As to the kind of experiment: Kd for enzyme inhibition, pure human NOS1. The data set is classed as biochemical.
Chain of recombinant purified human NOS1 (P29475 whole entry): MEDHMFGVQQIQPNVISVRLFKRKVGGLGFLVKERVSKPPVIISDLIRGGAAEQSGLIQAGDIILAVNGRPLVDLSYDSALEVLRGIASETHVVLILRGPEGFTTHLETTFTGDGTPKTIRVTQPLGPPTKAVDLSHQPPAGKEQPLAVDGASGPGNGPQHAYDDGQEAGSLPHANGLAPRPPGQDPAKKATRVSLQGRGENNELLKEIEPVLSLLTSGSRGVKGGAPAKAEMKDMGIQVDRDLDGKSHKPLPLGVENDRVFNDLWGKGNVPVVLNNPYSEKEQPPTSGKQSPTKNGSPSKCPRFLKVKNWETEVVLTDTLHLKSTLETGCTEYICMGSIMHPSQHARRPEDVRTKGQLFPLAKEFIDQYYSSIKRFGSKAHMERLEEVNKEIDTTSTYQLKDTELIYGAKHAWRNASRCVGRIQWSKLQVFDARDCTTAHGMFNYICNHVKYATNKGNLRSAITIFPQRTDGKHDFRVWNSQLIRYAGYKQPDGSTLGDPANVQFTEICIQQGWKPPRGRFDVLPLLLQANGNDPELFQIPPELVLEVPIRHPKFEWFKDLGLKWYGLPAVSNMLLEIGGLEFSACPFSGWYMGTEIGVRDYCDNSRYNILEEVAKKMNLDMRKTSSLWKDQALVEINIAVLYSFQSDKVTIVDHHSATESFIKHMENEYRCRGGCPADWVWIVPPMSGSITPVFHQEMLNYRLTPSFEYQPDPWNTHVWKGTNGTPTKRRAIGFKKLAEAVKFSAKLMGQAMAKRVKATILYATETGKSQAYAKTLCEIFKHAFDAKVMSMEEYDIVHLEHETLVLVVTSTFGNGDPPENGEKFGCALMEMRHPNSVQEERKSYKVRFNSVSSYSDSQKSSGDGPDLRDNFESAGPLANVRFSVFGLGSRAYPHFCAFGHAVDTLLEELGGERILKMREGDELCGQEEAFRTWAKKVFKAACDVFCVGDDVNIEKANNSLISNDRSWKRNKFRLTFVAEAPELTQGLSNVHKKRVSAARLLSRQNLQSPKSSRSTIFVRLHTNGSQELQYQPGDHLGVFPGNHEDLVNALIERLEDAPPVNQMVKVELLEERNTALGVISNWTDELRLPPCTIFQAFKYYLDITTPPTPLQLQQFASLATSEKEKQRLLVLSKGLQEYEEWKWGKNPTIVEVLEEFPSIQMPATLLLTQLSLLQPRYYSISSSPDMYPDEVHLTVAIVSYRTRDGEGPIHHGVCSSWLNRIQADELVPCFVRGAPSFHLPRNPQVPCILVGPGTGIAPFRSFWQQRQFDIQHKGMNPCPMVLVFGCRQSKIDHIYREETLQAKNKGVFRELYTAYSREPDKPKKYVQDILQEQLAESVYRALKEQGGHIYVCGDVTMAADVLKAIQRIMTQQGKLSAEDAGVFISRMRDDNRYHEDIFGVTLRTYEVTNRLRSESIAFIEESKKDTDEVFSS

Chain of pure human enzyme NOS3 (P29474 whole entry): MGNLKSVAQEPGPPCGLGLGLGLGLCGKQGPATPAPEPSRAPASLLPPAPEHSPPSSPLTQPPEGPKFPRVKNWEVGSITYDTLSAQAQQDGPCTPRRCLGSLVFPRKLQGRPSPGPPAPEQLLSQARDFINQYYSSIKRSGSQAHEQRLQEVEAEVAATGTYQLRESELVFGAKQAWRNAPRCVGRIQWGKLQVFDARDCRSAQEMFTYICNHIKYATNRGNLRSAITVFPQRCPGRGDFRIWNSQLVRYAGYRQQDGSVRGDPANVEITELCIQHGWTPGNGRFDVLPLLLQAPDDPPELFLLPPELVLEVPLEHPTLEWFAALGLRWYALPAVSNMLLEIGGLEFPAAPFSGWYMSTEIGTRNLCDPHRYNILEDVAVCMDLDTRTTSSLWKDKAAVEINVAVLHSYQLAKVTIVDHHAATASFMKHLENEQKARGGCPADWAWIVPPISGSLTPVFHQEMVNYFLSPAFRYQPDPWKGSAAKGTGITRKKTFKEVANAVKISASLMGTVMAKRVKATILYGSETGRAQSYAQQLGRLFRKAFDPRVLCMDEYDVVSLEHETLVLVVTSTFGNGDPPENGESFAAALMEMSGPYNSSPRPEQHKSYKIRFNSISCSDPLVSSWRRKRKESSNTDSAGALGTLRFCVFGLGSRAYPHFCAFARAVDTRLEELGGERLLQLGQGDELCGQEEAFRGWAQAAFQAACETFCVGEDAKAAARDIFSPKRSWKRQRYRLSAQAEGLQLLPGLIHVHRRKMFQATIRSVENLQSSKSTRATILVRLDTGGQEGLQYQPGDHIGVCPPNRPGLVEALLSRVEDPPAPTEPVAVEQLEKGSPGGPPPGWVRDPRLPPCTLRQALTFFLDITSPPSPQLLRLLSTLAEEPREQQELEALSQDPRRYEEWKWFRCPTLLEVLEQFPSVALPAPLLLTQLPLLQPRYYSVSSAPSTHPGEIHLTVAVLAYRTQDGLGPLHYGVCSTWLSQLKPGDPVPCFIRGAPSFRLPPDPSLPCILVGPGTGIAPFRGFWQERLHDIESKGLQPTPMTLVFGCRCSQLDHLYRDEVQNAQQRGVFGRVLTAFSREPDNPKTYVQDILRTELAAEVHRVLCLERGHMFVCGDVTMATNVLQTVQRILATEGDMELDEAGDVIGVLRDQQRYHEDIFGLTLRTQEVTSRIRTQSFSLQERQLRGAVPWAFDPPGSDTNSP

With `Cc1ccnc(N)c1` [2-amino-4-methyl pyridine], the “ED50 for CLL” value in the data set with CLL cells was over 2000 µM.

As to `O=[N+]([O-])c1cccc2cn[nH]c12` [7-NI, 7-Nitroindazole], the “ED50 for CLL (mean ± SEM)” value in the data set with CLL cells is 131 ± 23 µM. In the data set on CLL cells (Homo sapiens), the EC50 was determined as 131 ± 23 µM.

Usually Kd stands for a measure of binding affinity in units of concentration. Regarding `Cl.Cl.N=C(Nc1ccc(CCNCc2cccc(Cl)c2)cc1)c1cccs1` [ARL-17477, N-[4-(2-{[(3-chlorophenyl)methyl]amino}ethyl)phenyl]-2-thiophenecarboximide dihydrochloride], in the data set on CLL cells, the “ED50 for CLL (mean ± SEM)” value came out at 11 ± 2 µM, the “ED50 for CLL” value is 11 µM and the EC50 was 11 ± 2 µM. The Kd at pure human enzyme NOS3 turned out to be 1 µM.

Regarding `CC1(C)N([O])C(c2ccc(C(=O)O)cc2)=[N+]([O-])C1(C)C` [Carboxy-PTIO, 2-(4-Carboxyphenyl)-4,4,5,5-tetramethylimidazoline-1-oxyl-3-oxide], in the data set with CLL cells, the “ED50 for CLL (mean ± SEM)” value was 227 ± 31 µM and the EC50 was determined as 227 ± 31 µM.

Consider `NCCN(CCN)/[N+]([O-])=N/O` [DETA-NO], for which the “Interaction with fludarabine in killing CLL cells” value in data set [1] (combination with fludarabine) is “acted synergistically”. In [1] (freshly-isolated CLL cells), the “ID50, CLL cell apoptosis and death” value came to 188 µM. In addition, the “Interaction with other agents in killing CLL cells” value in data set [1] (with 5-fluorouracil, gemcitabine, doxorubicin, chlorambucil or SN-38) was “did not enhance the activity”. The “Inhibition of leukemia cell and colony growth (rank)” value in the data set on HL-60 and U937 cells was “most potent inhibitor”. In addition, the “half-life of NO delivery” value in data set [2] was 1200 min.

For the molecule `NCCNCCN` [DETA], the “Effect on CLL cells (control for NO dependence)” value in data set [1] (freshly-isolated CLL cells) is recorded as “had no effects”.

`C/C1=C2/[N-][C@H]([C@H](CC(N)=O)[C@@]2(C)CCC(=O)NC[C@@H](C)OP(=O)([O-])O[C@H]2[C@@H](O)[C@@H](n3cnc4cc(C)c(C)cc43)O[C@@H]2CO)[C@]2(C)N=C(/C(C)=C3N=C(/C=C4N=C1[C@@H](CCC(N)=O)C\4(C)C)[C@@H](CCC(N)=O)[C@]\3(C)CC(N)=O)[C@@H](CCC(N)=O)[C@]2(C)CC(N)=O.[Co+3].[OH-]` [Hydroxocobalamin]: in the data set with CLL cells, the “ED50 for CLL (mean ± SEM)” value came out at 148 ± 46 µM and the EC50 was 148 ± 46 µM.

Take `CNC(=N)NCCC[C@H](N)C(=O)O` [L-N^G-monomethylarginine]: in the data set with CLL cells, the “ED50 for CLL” value is over 2000 µM. Besides, in [3], the “Effects on cardiovascular, liver, or hematopoietic function” value is given as “no major effects”.

In the case of `NC(=N[N+](=O)[O-])NCCCC(N)C(=O)O` [L-N^G-nitroarginine], the “ED50 for CLL” value with CLL cells was over 2000 µM.

Regarding `CNCCCCCCN(C)/[N+]([O-])=N/O` [MAMA-NO], in data set [1] (freshly-isolated CLL cells), the “ID50, CLL cell apoptosis and death” value stood at 1658 µM. Besides, the “half-life of NO delivery” value in [2] is on record as 2 min.

Turning to `CCCN(CCCN)/[N+]([O-])=N/O` [PAPA-NO], in data set [1] (freshly-isolated CLL cells), the “ID50, CLL cell apoptosis and death” value came out at 850 µM. In data set [2], the “half-life of NO delivery” value is reported as 30 min.

As to `[NH-]c1c[n+](N2CCOCC2)no1` [SIN-1], in data set [4], the “Growth of HL-60 cells” value is “potently inhibited”. For the same molecule, the “Development of marrow colonies” value with normal human BM cells is “inhibited”.

As to `FC(F)(F)c1ccccc1-n1ccnc1` [TRIM, 1-(2-Trifluoromethylphenyl)imidazole], the “ED50 for CLL (mean ± SEM)” value in the data set with CLL cells was found to be 445 ± 46 µM. Further, the EC50 in the data set on CLL cells (Homo sapiens) was 445 ± 46 µM.

In the case of `C=CCC(=N)NCCC[C@H](N)C(=O)O` [Vinyl-L-NIO, N^5-(1-imino-3-butenyl)-L-ornithine], in the data set on CLL cells, the “ED50 for CLL (mean ± SEM)” value turned out to be 747 ± 126 µM and the “ED50 for CLL” value is 747 µM. Further, in the data set with CLL cells (Homo sapiens), the EC50 was found to be 747 ± 126 µM. Moreover, the dissociation constant Kd in [5] was found to be 0.1 µM.

As for `Nc1nc(F)nc2c1ncn2[C@@H]1O[C@H](CO)[C@@H](O)[C@@H]1O` [fludarabine], the “ID50, CLL cell apoptosis and death” value in data set [1] (freshly-isolated CLL cells) was 2 µM.

Regarding S-nitrosoacetylpenicillamine [SNAP], the “Growth of HL-60 cells” value in [4] is “potently inhibited”. In addition, in the data set with normal human BM cells, the “Development of marrow colonies” value is listed as “inhibited”.
